In general, IC50 refers to the concentration at which inhibition is half-maximal. One may read the EC50 as the concentration that produces a half-maximal response. For orientation: AC50 means the midpoint of the concentration-response curve, whichever way the signal moves.

Calls of active or inactive are those of the source. Bounds are passed on as bounds.

Data on 25 molecules can be found in ChEMBL document CHEMBL1201862, “PubChem BioAssay data set” (2004).

In one test the target is Nonstructural protein 1 (Influenza A virus, UniProt Q194T2). It counts as functional, Influenza A virus (A/California/07/2009(H1N1)).
In test [1] the target is T1, RNA-binding protein pos-1 (Caenorhabditis elegans, UniProt G5EF15).
T1 sequence (G5EF15 whole entry): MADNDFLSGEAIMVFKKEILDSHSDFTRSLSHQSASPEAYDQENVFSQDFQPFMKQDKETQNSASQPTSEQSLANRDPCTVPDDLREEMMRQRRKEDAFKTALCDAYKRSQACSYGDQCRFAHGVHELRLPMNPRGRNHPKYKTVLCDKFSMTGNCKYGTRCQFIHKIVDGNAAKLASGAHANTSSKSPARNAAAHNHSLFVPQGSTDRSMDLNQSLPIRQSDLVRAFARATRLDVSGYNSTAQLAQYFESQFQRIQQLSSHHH
The experiment in a line: disruptors of C. elegans POS-1 RNA interaction – biochemical, fluorescence polarization, dose response (AID 1964).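 Also: purified POS-1 fused to maltose binding protein made in E. coli; potency of compounds blocking POS-1 binding to fluorescent RNA.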

The target in test [2] is T2, Zinc finger protein mex-5 (Caenorhabditis elegans, UniProt Q9XUB2).
T2 sequence (Q9XUB2 whole entry): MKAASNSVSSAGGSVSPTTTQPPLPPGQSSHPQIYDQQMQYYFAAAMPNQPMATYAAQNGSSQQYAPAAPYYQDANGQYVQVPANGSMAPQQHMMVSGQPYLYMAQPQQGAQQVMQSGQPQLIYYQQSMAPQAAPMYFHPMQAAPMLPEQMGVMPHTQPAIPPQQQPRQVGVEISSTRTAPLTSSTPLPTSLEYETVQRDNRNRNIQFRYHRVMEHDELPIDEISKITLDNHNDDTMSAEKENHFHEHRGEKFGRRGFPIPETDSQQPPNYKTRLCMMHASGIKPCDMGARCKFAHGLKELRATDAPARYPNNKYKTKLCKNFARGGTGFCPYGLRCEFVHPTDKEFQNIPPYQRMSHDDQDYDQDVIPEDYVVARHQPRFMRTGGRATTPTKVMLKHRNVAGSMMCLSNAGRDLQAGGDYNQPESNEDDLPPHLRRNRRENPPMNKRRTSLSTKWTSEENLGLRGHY
The experiment in a line: potency of MEX-5 RNA-binding blockers – biochemical, C. elegans, fluorescence polarization, dose response (AID 1960).

Another test can be described thus: cells. The format is functional.
In a further test the target is Cytochrome P450 2C19 (Homo sapiens, UniProt P33261). The experiment in a line: Cytochrome panel assay with activity outcomes. Panel member name: p450-cyp2c19 Compounds with AC50 equal or less than 10 uM are considered active. The format is functional. The following applies: read-out: AC50.
Test [3] deals with T3, Rac GTPase-activating protein 1 (Homo sapiens, UniProt Q9H0H5).
T3 sequence (Q9H0H5 whole entry): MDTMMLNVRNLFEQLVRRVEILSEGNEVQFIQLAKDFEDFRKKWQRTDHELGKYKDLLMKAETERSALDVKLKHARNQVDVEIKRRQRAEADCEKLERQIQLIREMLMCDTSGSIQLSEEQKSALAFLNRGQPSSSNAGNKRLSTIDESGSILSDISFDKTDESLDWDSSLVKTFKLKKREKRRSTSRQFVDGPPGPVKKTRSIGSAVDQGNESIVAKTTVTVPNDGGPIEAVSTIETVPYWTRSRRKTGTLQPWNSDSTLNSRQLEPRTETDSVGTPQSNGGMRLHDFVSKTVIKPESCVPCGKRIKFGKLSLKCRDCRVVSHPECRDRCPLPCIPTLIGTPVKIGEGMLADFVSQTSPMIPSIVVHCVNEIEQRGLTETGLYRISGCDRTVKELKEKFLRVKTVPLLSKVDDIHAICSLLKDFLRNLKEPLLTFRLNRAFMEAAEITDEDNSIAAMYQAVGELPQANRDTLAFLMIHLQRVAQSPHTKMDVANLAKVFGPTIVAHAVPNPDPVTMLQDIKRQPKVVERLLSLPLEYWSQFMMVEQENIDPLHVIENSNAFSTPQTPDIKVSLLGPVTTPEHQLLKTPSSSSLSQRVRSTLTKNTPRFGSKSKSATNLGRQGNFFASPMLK
The experiment in a line: blockers of MgcRacGAP-driven Rac1 GTP hydrolysis – biochemical, ADP Hunter fluorescence, primary and confirmatory, confirmation (AID 624330). It counts as functional.

Test [4] in a line: blockers of HIV-1 envelope-mediated cell-cell fusion – cherry-pick, dose response (AID 652057). The format is functional, cell-based.
Test [5] in a line: HIV-1 AD8 envelope cell-cell fusion blockers – cherry-pick, dose response (AID 652062).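 Also: luciferase signal from cell-cell fusion driven by HIV-1 clade B AD8 Env; potency is for inhibitors of fusion seen as a drop in luminescence.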 It counts as functional, cell-based.
Test [6] can be described thus: Luminescence Cell-Based Dose Retest to Confirm Inhibitors of Cancer Stem Cells. [Related pubchem assays (depositor defined):AID2717, AID2721]. The format is functional. The conditions noted are these: Homo sapiens.
For test [7], the target named is T4, Ubiquitin-conjugating enzyme E2 N (Homo sapiens, UniProt P61088).
T4 sequence (P61088 whole entry): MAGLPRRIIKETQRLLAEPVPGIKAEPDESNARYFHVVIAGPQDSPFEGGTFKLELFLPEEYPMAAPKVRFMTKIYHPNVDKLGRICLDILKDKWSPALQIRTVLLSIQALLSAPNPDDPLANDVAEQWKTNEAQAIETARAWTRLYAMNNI
The format is functional.

The target of another test is T5, Bcl-2-related protein A1 (Mus musculus, UniProt Q07440).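 Also: confirmatory dose–response counterscreen on Bfl-1, used to check hits from a UBC13 polyubiquitin inhibitor campaign.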
T5 sequence (Q07440 whole entry): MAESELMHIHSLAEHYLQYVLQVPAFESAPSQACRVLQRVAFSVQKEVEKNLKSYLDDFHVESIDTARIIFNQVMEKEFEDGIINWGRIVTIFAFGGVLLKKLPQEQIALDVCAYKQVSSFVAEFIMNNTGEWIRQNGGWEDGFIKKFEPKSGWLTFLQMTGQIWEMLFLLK
It counts as functional.

Test [8] has as its target T4, Ubiquitin-conjugating enzyme E2 N. The format is functional. This is another data set of the same source.
The nature of test [9]: luciferase reporter signal suppression in cells – H4 neuroglioma cells, luminescence, dose response (AID 1990). It counts as functional, cell-based.
Test [10] can be described thus: alpha-synuclein stem-loop luciferase translation blockers – H4 neuroglioma cells, luminescence, confirmation (AID 1988). It counts as functional, cell-based.
Test [11] is described as follows: Luminescence Cell-Based Dose Response HTS to Identify Inhibitors of 5'UTR Stem-Loop Driven Prion Protein mRNA Translation in H4 Neuroglioblastoma Cells. [Related pubchem assays: 1827 (Project Summary), 1813 (Primary HTS)]. It counts as functional.
Test [12] can be described thus: viability of HCT116 lacking mutant beta-catenin – cell-based, human colon tumor, dose response (AID 1045).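 Also: HCT116 colon tumor cells with beta catenin knocked out; cells exposed to compound for 60 hours.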 It counts as functional.
Test [13] can be described thus: viability of PTEN-deleted HCT116 cells – cell-based, HCT116 PTEN knockout, dose response (AID 1047).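 Also: HCT116 colon tumor cells with PTEN knocked out; cells exposed to compound for 60 hours before readout; potency for loss of cell viability measured by luminescence.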 It counts as functional.
Test [14] in a line: Trypanosoma cruzi growth suppression in host cells – NIH3T3 host cells, beta-gal luminescence, confirmation (AID 2044).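 Also: intracellular parasites grown in NIH/3T3 mouse fibroblasts as host cells; luminescent beta-galactosidase reporter signal from transgenic T. cruzi replicating inside host cells; inhibitors lower the luminescence signal.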 It counts as functional, cell-based.
Test [15] can be described thus: NIH3T3 cell viability loss – ATP luminescence, mouse fibroblasts, counter-screen, dose response (AID 2010).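 Also: cells exposed to compound for about 90 hours before reading.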 It counts as functional, cell-based.

Nonstructural protein 1, sequence (Q194T2 whole entry): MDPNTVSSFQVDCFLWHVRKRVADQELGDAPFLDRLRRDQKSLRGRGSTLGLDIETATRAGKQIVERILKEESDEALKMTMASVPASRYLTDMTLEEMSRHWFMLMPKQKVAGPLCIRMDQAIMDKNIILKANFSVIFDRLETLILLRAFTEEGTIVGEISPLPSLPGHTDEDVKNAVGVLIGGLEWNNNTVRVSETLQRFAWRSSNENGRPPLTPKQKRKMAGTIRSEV
Cytochrome P450 2C19, sequence (P33261 whole entry): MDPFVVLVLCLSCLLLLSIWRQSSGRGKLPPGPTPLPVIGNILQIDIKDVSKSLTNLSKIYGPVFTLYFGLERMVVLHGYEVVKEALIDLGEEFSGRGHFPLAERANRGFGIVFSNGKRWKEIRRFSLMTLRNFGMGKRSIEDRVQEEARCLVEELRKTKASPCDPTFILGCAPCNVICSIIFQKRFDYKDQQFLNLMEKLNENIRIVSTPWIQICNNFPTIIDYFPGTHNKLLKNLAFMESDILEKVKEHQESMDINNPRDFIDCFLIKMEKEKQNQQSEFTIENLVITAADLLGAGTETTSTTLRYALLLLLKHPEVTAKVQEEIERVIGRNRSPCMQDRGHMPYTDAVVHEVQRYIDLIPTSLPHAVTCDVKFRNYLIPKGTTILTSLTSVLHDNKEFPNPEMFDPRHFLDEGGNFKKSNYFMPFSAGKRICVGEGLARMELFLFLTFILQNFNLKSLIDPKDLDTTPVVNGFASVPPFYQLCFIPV

As for `C=CCOc1ccc(CNc2ccc(NC(=O)CCC)cc2)cc1OCC`, the IC50 on Nonstructural protein 1 was > 100 µM (active).

For `CCc1ccc(NC(=O)/C(C#N)=C/c2cc3ccc(C)cc3nc2N2CCOCC2)cc1`, the EC50 in [1] was 47.9 µM (active); in [2], 113 µM (active).

`COC(=O)c1ccc(-n2c(CCC(=O)O)ccc2-c2ccccc2)cc1`: the EC50 in test [1] and in [2] was > 300 µM (not active) in each case.

For the molecule `Cc1ccc(/C=N/NC(=O)c2ccncc2)o1`, the 50% inhibitory concentration (IC50) in the test “cells” is 1.18 µM (active).

Consider `CCNc1nc(NCC)nc(N(C)N)n1`, for which the AC50 on Cytochrome P450 2C19 is 0.00141 µM (inconclusive). Moreover, on Nonstructural protein 1, the IC50 was 12.7 µM (active).

For the molecule `O=C(NNc1nc2cc3c(cc2s1)OCCO3)c1ccccc1`, in “cells”, the IC50 was 48.3 µM (active).

On to `CCOC(=O)/C(C#N)=C1/C(=O)N(Cc2ccccc2)c2ccccc21`, for which the IC50 on Nonstructural protein 1 was 99.6 µM (active); in test [3] it was 61 µM (active).

Regarding `Cc1nn(C(C)C(=O)N2CCOCC2)c(=O)c2nn(-c3ccccc3)c(C)c12` (stereo unspecified), the EC50 in [1] and in test [2] was > 300 µM (not active) in each case.

On to `COc1cccc(NC(=O)N(C)C[C@@H]2OCc3ccccc3-c3c(n(C)c4ccccc34)C(=O)N([C@@H](C)CO)C[C@@H]2C)c1`, for which the AC50 in test [4] and in test [5] was < 0.26 µM (active) each time.

As to `COc1ccc(-c2sc3ccccc3c2-c2ccc(OCCN3CCOCC3)cc2)cc1`, the concentration at half-maximal activity (AC50) in [6] is 0.842 µM (active). The IC50 was > 20 µM (inactive) in test [7], > 20 µM (inactive) on Bcl-2-related protein A1 and 15.1 µM (active) in test [8].

On to `CCN=C(S)N=Nc1c(O)[nH]c2ccc(C(C)C)cc12`, for which the IC50 is 2.49 µM (active) in test [7], > 20 µM (inactive) on Bcl-2-related protein A1 and 6.7 µM (active) in test [8].

`Cc1ccc(S(=O)(=O)N[C@H]2C=C[C@H](CC(=O)N3CCC(Cc4ccccc4)CC3)O[C@H]2CO)cc1`: the figures for the AC50 in test [4] and in test [5] were 69.4 µM (active) and 34.3 µM (active), respectively.

As for `COCCN=C(S)N=Nc1c(O)[nH]c2c(C)cc(C)cc12`, the figures for the IC50 (in [7]; at Bcl-2-related protein A1; in [8]) were 0.561 µM (active), > 20 µM (inactive) and 6.28 µM (active), respectively.

In the case of `CCOC(=O)N/N=C\c1ccc([N+](=O)[O-])s1`, in “cells”, the IC50 was 34 µM (active).

On to `CC1(C)Cc2c(sc(NC(=O)COc3ccc(Cl)cc3Cl)c2C(N)=O)C(C)(C)N1`, for which the EC50 in test [9] was 17.3 µM (active); in test [10] it was > 120 µM (not active); in [11], 18.7 µM (active). Moreover, the half-inhibitory concentration (IC50) in [7] was 2.86 µM (active); on Bcl-2-related protein A1 it was > 20 µM (inactive); in test [8], 4.55 µM (active).

For `N=C1c2ccccc2CN1NC(=O)CC12CC3CC(CC(C3)C1)C2`, the EC50 in test [1] and in [2] was > 300 µM (not active) in each case.

Turning to `Cc1cccc(NC(=O)c2cc3ccccc3o2)c1`, in “cells”, the IC50 was 40.5 µM (active).

`O=C(CCCCn1c(=O)c2ccccc2n(Cc2ccccc2F)c1=O)NC1CCN(Cc2ccccc2)CC1`: the IC50 was 5.47 µM (active) in [7], > 20 µM (inactive) at Bcl-2-related protein A1 and 11.3 µM (active) in test [8].

Take `O=C(CNCc1ccccn1)Nc1cc(S(=O)(=O)N2CCCCC2)ccc1Cl`: at Nonstructural protein 1, the IC50 is 6.83 µM (active).

With `CN(C)c1ccc(/C=C2\N=C(C(C)(C)C)OC2=O)cc1`, the IC50 in the test “cells” was 11.3 µM (active). The EC50 in test [1] was 7.17 µM (active); in test [2] it was 22.3 µM (inconclusive).

For `O=C1c2cccc3cccc(c23)C(=O)N1CCN1CCN(CC(O)COc2ccc3ccccc3c2)CC1` (stereo unspecified), the AC50 in test [6] was 5.08 µM (active). The EC50 is 9.47 µM (active) in test [12] and 12 µM (active) in test [13]. The IC50 in [7] is 3.02 µM (active); on Bcl-2-related protein A1 it was > 20 µM (inactive); in test [8], 2.49 µM (active).

As for `CC1(C)SC2C(C(=O)O)N=C(Cc3ccccc3)N2C1C(=O)O` (stereo unspecified), the IC50 at Nonstructural protein 1 is 12.2 µM (active).

As to `Cc1cccc(OCCCCc2c(C)n[nH]c2C)c1`, in “cells”, the IC50 was 9.67 µM (active).

For `C#CCOCCOCCOCCNc1nc(N2CCN(C(=O)[C@H](CCCCN)n3cc(CN)nn3)CC2)nc(N2CCN(C(=O)[C@H](CCC(=O)O)n3cc([C@@H](N)CCCCN)nn3)CC2)n1`, the IC50 in [7] was 2.79 µM (active); at Bcl-2-related protein A1, > 20 µM (inactive); in [3] it was 190 µM (active); in test [8], 2.85 µM (active).

As to `O=C(CCCCn1c(=O)c2ccccc2n(Cc2ccccc2)c1=O)NC1CCN(Cc2ccccc2)CC1`, the figures for the EC50 in [14] and in [15] were 0.695 µM (active) and > 60 µM (not active), respectively. For the same molecule, the IC50 in test [7] is 5.17 µM (active); at Bcl-2-related protein A1, > 20 µM (inactive); in [8] it was 9.28 µM (active).
